From patent publication US12358904B2, “Inhibitors of TYK2” (Atomwise Inc., priority 2023, dated 2025)

Legend:
IL-6/pSTAT3 = assay: IL-6 induced pSTAT3 assay in TF-1 cells; assay type: cell-based; conditions: Homo sapiens, read-out: Cellular selectivity (IL-6/pSTAT3)
Protocol: The following example describes the IL-6 induced pSTAT3 assay used to determine the cellular selectivity (IL-6/pSTAT3) of the TYK2 inhibitors.
TF-1 (ATCC®, CRL-2003™) cells were cultured in RPMI 1640 Medium, with GlutaMAX™ Supplement, HEPES for Cell Culture (Life Technologies, 72400047), 10% Fetal Bovine Serum (Life Technologies, 26400044), 2 ng/mL human recombinant GM-CSF (Life Technologies, PHC2013), 1 mM Sodium pyruvate (Life Technologies, 11360039), 1% MEM NEAA (Life Technologies, 11140-035), 1% Penicillin/Streptomycin (Life Technologies, 15140-122).
TF-1 (70×10^6) cells were starved overnight in T01 50 flasks (Opti-MEM™ I Reduced Serum Medium, no phenol red (Life Technologies, 11058-021), 1 mM Na pyruvate (Life Technologies, 11360039), 1% MEM NEAA (Life Technologies, 11140-035), and 1% Penicillin/Streptomycin (Life Technologies, 15140-122)) then seeded into 96-well TPP plates (150 000 cell/well) and incubated with test compounds (Final Concentration [nM] 10000-0.05) for 30 minutes at 37° C. […] Stimulation was terminated by addition of lysis buffer (MSD K150SVD) and pSTAT3 detection was measured with Phospho-STAT3 (Tyr705) Kit MSD K150SVD)) according to manufacturer's instruction. Briefly, cell lysates were added to pre-blocked plates, sealed, and shake for 1 hour at room temperature. Plates were then washed and incubated with detection antibody for 1 hour at room temperature. After washing, Read Buffer was added, and plates were read on MSD instrument (Model 1300 MSD Quickplex SQ 120).

IL-12/pSTAT4 = assay: IL-12 induced pSTAT4 assay in NK-92 cells; assay type: cell-based; conditions: Homo sapiens, NK92, IL-12 stimulation, read-out: Cellular potency (IL-12/pSTAT4)
Outline: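 Overnight-starved NK-92 cells (20K/well) pre-incubated with compounds (1000 to 0.05 nM final) 30 min at 37 °C, then stimulated with IL-12 (10 ng/ml) for 30 min at 37 °C. Lysates assayed for pSTAT4 (Tyr693) by MSD electrochemiluminescence.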

TYK2-JH2 = molecular target: T1, TYK2-JH2 (Homo sapiens, UniProt P29597); assay: TYK2-JH2 HTRF binding assay (ligand efficiency); conditions: calculated from IC50 of the TYK-JH2 binding assay (Equation 1)
T1 construct: TYK JH2 enzyme mix (ChemPartnec CP20210818A-BV); purchased ChemPartner CP20210818A-BV
Outline: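 His-tagged TYK2 JH2 (0.5 nM) preincubated 10 min at RT with compound (0.1–0.000005 μM) in 20 mM HEPES pH 7.5, 10 mM MgCl2, 0.01% Triton X-100, 1 mM DTT; then 35 nM tracer plus anti-6HIS Tb cryptate, 60 min RT. TR-FRET read (Ex340/Em495/520); IC50 converted to ligand efficiency.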

GM-CSF/pSTAT5 = assay: GM-CSF induced pSTAT5 assay in CellSensor irf1-bla TF-1 cells; assay type: cell-based; conditions: Homo sapiens, GM-CSF 1 ng/mL, read-out: Cellular selectivity (GM-CSF induced pSTAT5)
Protocol: The CellSensor irf1-bla TF-1 cell line (LifeTechnologies, K1657) was cultured in RPMI 1640 Medium (Invitrogen 72400-047), 10% Fetal Bovine Serum (Invitrogen, 26400044), 1 mM Sodium pyruvate (Life Technologies, 11360039), 1% MEM NEAA (Life Technologies, 11140-035), 2 ng/ml of human recombinant GM-CSF (Fisher, PHC2015), 1% Penicillin/Streptomycin (Life Technologies, 15140-122) and 5 μg/ml of Blasticidin (ThermoFisher, A1113903).
The cell line was seeded in a T75 flask at 13×10^6 cells/50 mL in starvation medium (Opti-MEM™ I Reduced Serum Medium, no phenol red (Life Technologies, 11058-021), 1 mM Na pyruvate (Life Technologies, 11360039), 1% MEM NEAA (Life Technologies, 11140-035), and 1% Penicillin/Streptomycin (Life Technologies, 15140-122)) for 16 hours at 37° C. under 5% CO2 the day before the assay.
For the assay, CellSensor irf1-bla TF-1 cells were seeded at 30 000 cells/32 μL (starvation medium)/well in a 384-well plate.
Compounds were added on the cells in 4 μL (starvation medium)/well at 10× the final concentration. They were incubated for 30 minutes at 37° C.
Human recombinant carrier-free GM-CSF (ThermoFisher, ref PHC2015) was added to the wells in 4 μL (starvation medium)/well at 10×. The final concentration was 1 ng/mL. Control wells without GM-CSF treatment were added. Plates were incubated for 5 hours at 37° C.
6× LiveBlazer-FRET substrate (Invitrogen, K1085) was added to the wells at 8 μL/well. The substrate was prepared shortly before use by mixing 6 μL of solution A and 60 μL of solution B to 934 μL of solution C. Plates were incubated for 2.5 hours at room temperature in the dark. The plates were read on an Envision (Perkin Elmer) with an excitation at a wavelength of 409 nm and two wavelengths for the emission 520 nm and 450 nm. The ratio between the […] emission was used to calculate the IC50s.
The IC50 for the inhibition of pSTAT5 was calculated with the Xlfit software using the 4 Parameter Logistic Model or Sigmoidal Dose-Response Model (model 205).

[1] = Brain exposure pharmacokinetic study in rats; assay type: in vivo, rat; conditions: male Sprague Dawley rats, oral gavage 10 mg/kg, plasma, CSF
Protocol: The brain exposure of exemplary compounds, e.g., 1, 2, and 4 were evaluated in male Sprague Dawley rats after oral gavage administration at 10 mg/kg. The formulation was 5% DMSO+10% PEG400 in saline. Rats were fasted overnight with food returned 4 hours post-dose. CSF was collected by direct needle puncture into the cisterna magna.
(§1) For both rat and mouse studies, brain tissue was washed with 3 volumes of saline prior to homogenization. Brain tissue was homogenized with 3 volumes (v/w) of phosphate buffered saline. Plasma, brain homogenate, and CSF samples (rat only) were analyzed by LC-MS/MS and the concentration of test compound at each time point was determined by linear regression.
(§2) Pharmacokinetic parameters were calculated from the plasma, brain, and CSF concentrations by non-compartmental modeling using WinNonlin 8.2.

[2] = Brain exposure pharmacokinetic study in mice; assay type: in vivo, mouse; conditions: male C57BL/6 mice, oral gavage 5 mg/kg, plasma
Protocol: The brain exposure of 18 was evaluated in male C57BL/6 mice after oral gavage administration at 5 mg/kg. The formulation was 10% DMSO+40% PEG400 in saline. Mice were provided free access to food and water without fasting. Terminal sample collection of plasma and brain tissue were collected at […], 0.25, 0.5, 1, 2, and 4 hours post-dose with n=3 at each timepoint.
as §1, §2

T1 sequence (P29597 589-875 limits assumed): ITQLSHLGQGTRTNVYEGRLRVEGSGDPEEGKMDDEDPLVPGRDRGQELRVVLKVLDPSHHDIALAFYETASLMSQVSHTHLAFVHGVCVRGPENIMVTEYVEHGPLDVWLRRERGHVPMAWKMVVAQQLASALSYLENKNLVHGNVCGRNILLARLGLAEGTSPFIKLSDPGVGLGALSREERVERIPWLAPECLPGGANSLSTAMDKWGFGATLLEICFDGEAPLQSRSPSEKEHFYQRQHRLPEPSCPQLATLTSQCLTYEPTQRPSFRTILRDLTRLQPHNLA

| SMILES | IC50 (IL-6/pSTAT3) | IC50 (IL-12/pSTAT4) | Ligand Efficiency (TYK2-JH2) | IC50 (GM-CSF/pSTAT5) | Brain Kpu, u [1] | Brain Kpu, u [2] |
| --- | --- | --- | --- | --- | --- | --- |
| C[C@@H](c1ccc(Nc2cc(Nc3ncccc3S(C)(=O)=O)ncn2)nc1)N1CC2(COC2)C1 [Compound 1, (S)—N^4-(5-(1-(2-oxa-6-azaspiro[3.3]heptan-6-yl)ethyl)73yridine-2-yl)-N^6-(3-(methylsulfonyl)73yridine-2-yl)pyrimidine-4,6-diamine] | > 10 µM | < 0.1 µM | ††† (†††: >0.39) | 4 to 10 µM | †† (†† 0.1-0.2u) | – |
| C[C@@H](c1ccc(Nc2cc(Nc3ncc(F)cc3S(C)(=O)=O)ncn2)nc1)N1CC2(COC2)C1 [Compound 2, (S)—N^4-(5-(1-(2-oxa-6-azaspiro[3.3]heptan-6-yl)ethyl)75yridine-2-yl)-N^6-(5-fluoro-3-(methylsulfonyl)75yridine-2-yl)pyrimidine-4,6-diamine] | > 10 µM | < 0.1 µM | ††† (†††: >0.39) | > 10 µM | † († <0.1u) | – |
| C[C@@H](c1ccc(Nc2cc(Nc3ncccc3S(C)(=O)=O)ncn2)nc1)N(C)C [Compound 4, (S)—N^4-(5-(1-(dimethylamino)ethyl)79yridine-2-yl)-N^6-(3-(methylsulfonyl) 79yridine-2-yl) pyrimidine-4,6-diamine] | 4 to 10 µM | < 0.1 µM | ††† (†††: >0.39) | > 10 µM | ††† (††† >0.2u) | – |
| Cc1cccc(Nc2cc(Nc3ncccc3S(C)(=O)=O)ncn2)n1 [Compound 18, N^4-(6-methylpyridin-2-yl)-N^6-(3-(methylsulfonyl)99yridine-2-yl) pyrimidine-4,6-diamine] | < 4 µM | < 0.1 µM | ††† (†††: >0.39) | > 10 µM | – | ††† (††† >0.2u) |
